Columns and labels:
Assay in all cases: relative viability (nuclei count vs DMSO), 5 days (fraction); higher = more cells survive
LXF-289 = system: LXF-289
Summary of the method: (§1)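 The day after seeding in 1536-well plates, lung cancer cell lines were treated by pin tool with a single drug, or with a fixed anchor-drug dose together with five library-drug doses (not always all listed) in √10 steps. After 5 days, a combined fix-and-stain solution (final 0.05% Triton X-100, 1% formaldehyde, 1 ug/ml Hoechst) was added. Nuclei counted on 4× images gave relative viability as treated counts over vehicle counts, reported as the median of duplicate plates.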

NCI-H1944 = system: NCI-H1944
Summary of the method: as §1

NCI-H2170 = system: NCI-H2170
Summary of the method: as §1

ChaGo-K-1 = system: ChaGo-K-1
Summary of the method: as §1

NCI-H647 = system: NCI-H647
Summary of the method: as §1

EKVX = system: EKVX
Summary of the method: as §1

NCI-H661 = system: NCI-H661
Summary of the method: as §1

BEN = system: BEN
Summary of the method: as §1

HCC-827 = system: HCC-827
Summary of the method: as §1

RERF-LC-KJ = system: RERF-LC-KJ
Summary of the method: as §1

NCI-H1355 = system: NCI-H1355
Summary of the method: as §1

LK-2 = system: LK-2
Summary of the method: as §1

NCI-H2126 = system: NCI-H2126
Summary of the method: as §1

PC-14 = system: PC-14
Summary of the method: as §1

HOP-62 = system: HOP-62
Summary of the method: as §1

NCI-H1437 = system: NCI-H1437
Summary of the method: as §1

NCI-H727 = system: NCI-H727
Summary of the method: as §1

NCI-H1993 = system: NCI-H1993
Summary of the method: as §1

SK-MES-1 = system: SK-MES-1
Summary of the method: as §1

NCI-H1666 = system: NCI-H1666
Summary of the method: as §1

LOU-NH91 = system: LOU-NH91
Summary of the method: as §1

LCLC-103H = system: LCLC-103H
Summary of the method: as §1

NCI-H441 = system: NCI-H441
Summary of the method: as §1

Compound: CCNC(=O)c1noc(-c2cc(C(C)C)c(O)cc2O)c1-c1ccc(CN2CCOCC2)cc1 [Luminespib] + COc1cccc2cc(-c3nc([C@H]4CC[C@H](C(=O)O)CC4)n4ncnc(N)c34)[nH]c12 [OSI-027] (partner 0.5 µM)
- relative viability (LXF-289; first compound 0.002 µM): 0.751
- relative viability (LXF-289; first compound 0.006325 µM): 0.762
- relative viability (LXF-289; first compound 0.02 µM): 0.759
- relative viability (LXF-289; first compound 0.06325 µM): 0.163
- relative viability (LXF-289; first compound 0.2 µM): 0.0755
- relative viability (NCI-H1944; first compound 0.002 µM): 0.422
- relative viability (NCI-H1944; first compound 0.006325 µM): 0.359
- relative viability (NCI-H1944; first compound 0.02 µM): 0.365
- relative viability (NCI-H1944; first compound 0.06325 µM): 0.215
- relative viability (NCI-H1944; first compound 0.2 µM): 0.152
- relative viability (NCI-H2170; first compound 0.002 µM): 0.739
- relative viability (NCI-H2170; first compound 0.006325 µM): 0.698
- relative viability (NCI-H2170; first compound 0.02 µM): 0.488
- relative viability (NCI-H2170; first compound 0.06325 µM): 0.23
- relative viability (NCI-H2170; first compound 0.2 µM): 0.173
- relative viability (ChaGo-K-1; first compound 0.002 µM): 0.562
- relative viability (ChaGo-K-1; first compound 0.006325 µM): 0.612
- relative viability (ChaGo-K-1; first compound 0.02 µM): 0.525
- relative viability (ChaGo-K-1; first compound 0.06325 µM): 0.199
- relative viability (ChaGo-K-1; first compound 0.2 µM): 0.161
- relative viability (NCI-H647; first compound 0.002 µM): 0.717
- relative viability (NCI-H647; first compound 0.006325 µM): 0.626
- relative viability (NCI-H647; first compound 0.02 µM): 0.595
- relative viability (NCI-H647; first compound 0.06325 µM): 0.0814
- relative viability (NCI-H647; first compound 0.2 µM): 0.0562
- relative viability (EKVX; first compound 0.002 µM): 0.631
- relative viability (EKVX; first compound 0.006325 µM): 0.684
- relative viability (EKVX; first compound 0.06325 µM): 0.658
- relative viability (EKVX; first compound 0.2 µM): 0.143
- relative viability (NCI-H661; first compound 0.002 µM): 0.802
- relative viability (NCI-H661; first compound 0.006325 µM): 0.672
- relative viability (NCI-H661; first compound 0.02 µM): 0.58
- relative viability (NCI-H661; first compound 0.06325 µM): 0.199
- relative viability (NCI-H661; first compound 0.2 µM): 0.226
- relative viability (BEN; first compound 0.002 µM): 0.288
- relative viability (BEN; first compound 0.006325 µM): 0.292
- relative viability (BEN; first compound 0.02 µM): 0.316
- relative viability (BEN; first compound 0.06325 µM): 0.212
- relative viability (BEN; first compound 0.2 µM): 0.183
- relative viability (HCC-827; first compound 0.002 µM): 0.795
- relative viability (HCC-827; first compound 0.006325 µM): 0.725
- relative viability (HCC-827; first compound 0.02 µM): 0.543
- relative viability (HCC-827; first compound 0.06325 µM): 0.354
- relative viability (HCC-827; first compound 0.2 µM): 0.126
- relative viability (RERF-LC-KJ; first compound 0.002 µM): 0.584
- relative viability (RERF-LC-KJ; first compound 0.006325 µM): 0.536
- relative viability (RERF-LC-KJ; first compound 0.02 µM): 0.346
- relative viability (RERF-LC-KJ; first compound 0.06325 µM): 0.207
- relative viability (RERF-LC-KJ; first compound 0.2 µM): 0.195
- relative viability (NCI-H1355; first compound 0.002 µM): 0.39
- relative viability (NCI-H1355; first compound 0.006325 µM): 0.377
- relative viability (NCI-H1355; first compound 0.02 µM): 0.277
- relative viability (NCI-H1355; first compound 0.06325 µM): 0.163
- relative viability (NCI-H1355; first compound 0.2 µM): 0.148
- relative viability (LK-2; first compound 0.002 µM): 0.209
- relative viability (LK-2; first compound 0.006325 µM): 0.191
- relative viability (LK-2; first compound 0.02 µM): 0.149
- relative viability (LK-2; first compound 0.06325 µM): 0.12
- relative viability (LK-2; first compound 0.2 µM): 0.136
- relative viability (NCI-H2126; first compound 0.002 µM): 0.72
- relative viability (NCI-H2126; first compound 0.006325 µM): 0.651
- relative viability (NCI-H2126; first compound 0.02 µM): 0.533
- relative viability (NCI-H2126; first compound 0.06325 µM): 0.226
- relative viability (NCI-H2126; first compound 0.2 µM): 0.223
- relative viability (PC-14; first compound 0.002 µM): 0.918
- relative viability (PC-14; first compound 0.006325 µM): 0.598
- relative viability (PC-14; first compound 0.02 µM): 0.11
- relative viability (PC-14; first compound 0.06325 µM): 0.0462
- relative viability (PC-14; first compound 0.2 µM): 0.0587
- relative viability (HOP-62; first compound 0.002 µM): 0.83
- relative viability (HOP-62; first compound 0.006325 µM): 0.758
- relative viability (HOP-62; first compound 0.02 µM): 0.648
- relative viability (HOP-62; first compound 0.06325 µM): 0.428
- relative viability (HOP-62; first compound 0.2 µM): 0.111
- relative viability (NCI-H1437; first compound 0.002 µM): 0.838
- relative viability (NCI-H1437; first compound 0.006325 µM): 0.845
- relative viability (NCI-H1437; first compound 0.02 µM): 0.466
- relative viability (NCI-H1437; first compound 0.06325 µM): 0.57
- relative viability (NCI-H1437; first compound 0.2 µM): 0.187
- relative viability (NCI-H727; first compound 0.002 µM): 0.72
- relative viability (NCI-H727; first compound 0.006325 µM): 0.549
- relative viability (NCI-H727; first compound 0.02 µM): 0.463
- relative viability (NCI-H727; first compound 0.06325 µM): 0.33
- relative viability (NCI-H727; first compound 0.2 µM): 0.23
- relative viability (NCI-H1993; first compound 0.002 µM): 0.598
- relative viability (NCI-H1993; first compound 0.006325 µM): 0.545
- relative viability (NCI-H1993; first compound 0.02 µM): 0.562
- relative viability (NCI-H1993; first compound 0.06325 µM): 0.457
- relative viability (NCI-H1993; first compound 0.2 µM): 0.389
- relative viability (SK-MES-1; first compound 0.002 µM): 0.609
- relative viability (SK-MES-1; first compound 0.006325 µM): 0.486
- relative viability (SK-MES-1; first compound 0.02 µM): 0.2
- relative viability (SK-MES-1; first compound 0.06325 µM): 0.11
- relative viability (SK-MES-1; first compound 0.2 µM): 0.131
- relative viability (NCI-H1666; first compound 0.002 µM): 0.841
- relative viability (NCI-H1666; first compound 0.006325 µM): 0.801
- relative viability (NCI-H1666; first compound 0.02 µM): 0.853
- relative viability (NCI-H1666; first compound 0.06325 µM): 0.81
- relative viability (NCI-H1666; first compound 0.2 µM): 0.791
- relative viability (LOU-NH91; first compound 0.002 µM): 0.684
- relative viability (LOU-NH91; first compound 0.006325 µM): 0.74
- relative viability (LOU-NH91; first compound 0.02 µM): 0.492
- relative viability (LOU-NH91; first compound 0.06325 µM): 0.319
- relative viability (LOU-NH91; first compound 0.2 µM): 0.295
- relative viability (LCLC-103H; first compound 0.002 µM): 0.457
- relative viability (LCLC-103H; first compound 0.006325 µM): 0.471
- relative viability (LCLC-103H; first compound 0.02 µM): 0.35
- relative viability (LCLC-103H; first compound 0.06325 µM): 0.503
- relative viability (LCLC-103H; first compound 0.2 µM): 0.383
- relative viability (NCI-H441; first compound 0.002 µM): 0.655
- relative viability (NCI-H441; first compound 0.006325 µM): 0.588
- relative viability (NCI-H441; first compound 0.02 µM): 0.286
- relative viability (NCI-H441; first compound 0.06325 µM): 0.142
- relative viability (NCI-H441; first compound 0.2 µM): 0.16
